# Like-named read-outs stand apart in the source and are kept apart here.
# Tests used:
# Chlorella (HS26) cells = assay: pH drift of cultures suspended in different nitrogen sources (Example 1); assay type: cell-based; settings: after 24 hours, compared to a control; light, shaking 100 RPM; FIG. 10
# Method: The Chlorella cultures were supplied with light, and shaking from a shaker table at 100 RPM. The pH drift of each culture was measured after 24 hours and compared to a control.
# Chlorella (HS26) [1] = system: Chlorella (HS26)
# Method: Cultures of Chlorella (HS26) were inoculated at 0.3 g/L in glass column bioreactors at a volume of 700 mL of BG-11 culture media and maintained at a temperature of 27° C. The mixotrophic cultures received aeration at a rate of 1 Liter per minute, an initial batch of 30 g glucose/L, and were supplied 270 micromoles of light using LED lights (LumiGrow, Inc., Emeryville, Calif.). In a first treatment, the culture was supplied with an initial batch of 3 g/L NaNO3 (“Nitrate” treatment), and the culture pH was controlled at a set point of 6.5 by a pH auxostat feed containing 0.50% HCl. In a second treatment, the culture was supplied with an initial batch of 3 g/L NaNO3 (“Nitrates” treatment), and the culture pH was controlled at a set point of 7.5 by a pH auxostat feed containing 0.50% HCl. […] Samples were taken daily to measure the cell dry weight, nitrogen concentration, and total protein.
# Chlorella (HS26) [2] = settings: pH 7.0
# Method: Cultures of Chlorella (HS26) were inoculated at 0.3 g/L in glass column bioreactors at a volume of 700 mL of BG-11 culture media and maintained at a temperature of 27° C. The mixotrophic cultures received aeration at a rate of 1 Liter per minute, an initial batch of 30 g glucose/L, and were supplied 270 micromoles of light using LED lights (LumiGrow, Inc., Emeryville, Calif.). In a first treatment, the culture was supplied with an initial batch of 3 g/L NaNO3 (“Nitrate” treatment), and the culture pH was controlled at a set point of 7.0 by a pH auxostat feed containing 0.75% HCl. […] Samples were taken daily to measure the cell dry weight, nitrogen concentration, and total protein.
# Chlorella (HS26) [3] = settings: for total protein content: FIG. 29; for growth (cell dry weight over time): FIG. 26
# Method: Cultures of Chlorella (HS26) were inoculated at 0.3 g/L in glass column bioreactors at a volume of 700 mL of BG-11 culture media and maintained at a temperature of 27° C. The mixotrophic cultures received aeration at a rate of 1 Liter per minute, an initial batch of 30 g glucose/L, and were supplied 270 micromoles of light using LED lights (LumiGrow, Inc., Emeryville, Calif.). In a first treatment, the culture was supplied with an initial batch of 3 g/L NaNO3 (“Nitrate” treatment), and the culture pH was controlled at a set point of 7.0 by a pH auxostat feed containing 0.50% HCl. In a second treatment, the culture was supplied with an initial batch of 3 g/L NaNO3 (“Nitrates” treatment), and the culture pH was controlled at a set point of 8.0 by a pH auxostat feed containing 0.50% HCl. […] Samples were taken daily to measure the cell dry weight, nitrogen concentration, and total protein.
# Chlorella (HS26) [4] = settings: for final day (day 4) cell dry weight: FIG. 16
# Method: Cultures of Chlorella (HS26) were inoculated at 0.3 g/L in glass column bioreactors at a volume of 700 mL of BG-11 culture media and maintained at a temperature of 27° C. The mixotrophic cultures received an initial batch of 1 g/L NH4Cl, aeration at a rate of 1 Liter per minute, an initial batch of 40 g glucose/L, and were supplied 270 micromoles of light using LED lights (LumiGrow, Inc., Emeryville, Calif.). Treatments were conducted at culture medium pH values of 6.5, 7.0, 7.3, 7.5, 7.8, 8.0, and 8.5. The culture medium pH was controlled with a pH auxostat supplying a titrate of 0.5% NH4OH and 0.75% HCl at the designated set points. Samples were taken daily to measure the cell dry weight, nitrogen concentration, and total protein. Results are show in FIGS. 13-17.
# Chlorella cultures = settings: 1 g N/L of NH4; mixotrophic, acetic acid as organic carbon source; FIG. 11
# Excerpt: The Chlorella cultures productivity using either ammonium (NH4) or nitrates (NO3) as the nitrogen source in mixotrophic culture conditions (i.e., supply of light, supply of acetic acid as the organic carbon source) were then compared. The cultures received NH4 at a concentration of 0.13 g N/L, 0.25 g N/L, 0.5 g N/L, or 1 g N/L for the ammonium treatments. The cultures received NO3 at a concentration of 0.25 g N/L or 1 g N/L for the nitrate treatments. Samples were taken to measure cell dry weight at 0, 39, 86, and 161.5 hours.
# Schizochytrium limacinum = settings: pH 6.5
# Excerpt: The heterotrophic cultures received aeration at a rate of 1 Liter per minute, and an initial batch of 80 g glycerol/L. In a first treatment, the culture was supplied with an initial batch of 20 g/L monosodium glutamate (“Glutamate” treatment), and the culture pH was controlled at a set point of 6.5 by a pH auxostat feed containing 1% HCl. […] Samples were taken daily to measure the cell dry weight, nitrogen concentration, and total protein. Results are show in FIGS. 30-33.
SMILES,pH drift of culture (Chlorella (HS26) cells),"growth (cell dry weight over time) (Chlorella (HS26) [1]; Ammonia pH 6.5 treatment, among Ammonia and Nitrate treatments at pH 6.5 and 7.5, FIG. 22)","total protein content (Chlorella (HS26) [1]; Ammonia treatments pH 6.5 and 7.5 versus Nitrate treatments, FIG. 25)","growth (cell dry weight over time) (Chlorella (HS26) [2]; 1.0 g/L NH4Cl, 0.5% NH4OH feed, versus Nitrate treatment, FIG. 18)","increase in protein (Chlorella (HS26) [2]; compared to the Nitrate treatment, FIG. 21)",total protein content (Chlorella (HS26) [3]; Ammonia culture grown at the higher pH (8.0)),growth (cell dry weight over time) (Chlorella (HS26) [3]; Ammonia pH 7.0 treatment),growth (cell dry weight over time) (Chlorella (HS26) [3]; Ammonia pH 8.0 treatment),total protein content (Chlorella (HS26) [3]; Ammonia treatments pH 7.0 and 8.0 versus Nitrate treatments),"total protein on the final day (day 4) (Chlorella (HS26) [4]; culture pH 6.5 to 8.5, particularly above 7.5, FIG. 17)","accumulated protein (total protein content) (Chlorella (HS26) [4]; culture pH above 7.5, FIG. 15)",final day (day 4) cell dry weight (Chlorella (HS26) [4]; culture pH above 7.5),"growth (cell dry weight over time) (Chlorella (HS26) [4]; culture pH above 7.5, initial 1 g/L NH4Cl, 0.5% NH4OH titrant, FIG. 13)",final day (day 4) cell dry weight (Chlorella (HS26) [4]; culture pH of 7.5 and below),growth and productivity (cell dry weight) (Chlorella cultures),"growth (cell dry weight over time) (Schizochytrium limacinum; 1.0 g/L NH4Cl, 10% NH4OH feed, heterotrophic, glycerol, FIG. 30)","increase in protein yield (Schizochytrium limacinum; over the Glutamate treatment, FIG. 33)"
"O=[N+]([O-])[O-].[Na+] [sodium nitrate, reference compound]",increased in culture pH,,,,,,,,,,,,,,,,
"N [Ammonia, ammonia]",,greatest amount of growth,more protein than the Nitrate treatments,better growth than the Nitrate treatment,15%,highest resulting protein,highest resulting growth,impaired growth,more total protein than the Nitrate treatments,increased as the culture pH increased,increase in accumulated protein,decreased as the culture pH increased,impaired growth,substantially similar,suffered,higher resulting growth than the Glutamate treatment,20%
N.N.O=S(=O)(O)O [ammonium sulfate],decreased in culture pH,,,,,,,,,,,,,,,,

# From patent US20200002665A1 (Heliae Development, LLC, priority 2016, published 2020)
